Experimental data from patent US20230416227A1, “PLASMA KALLIKREIN INHIBITORS” (Merck Sharp & Dohme LLC, priority 2020, published 2023).

Tests used:
Human plasma kallikrein = biological target: T1, Human plasma kallikrein (Homo sapiens, UniProt P03952); test: Plasma Kallikrein Assay; format: biochemical; conditions: purified Human plasma kallikrein 0.5 nM, substrate Acetyl-K-P-R-AFC, pH 7.4
T1 construct: yields a heavy chain (371 amino acids) and a light chain (248 amino acids); purchased Enzyme Research Laboratories
T1 sequence (P03952 391-638 limits assumed): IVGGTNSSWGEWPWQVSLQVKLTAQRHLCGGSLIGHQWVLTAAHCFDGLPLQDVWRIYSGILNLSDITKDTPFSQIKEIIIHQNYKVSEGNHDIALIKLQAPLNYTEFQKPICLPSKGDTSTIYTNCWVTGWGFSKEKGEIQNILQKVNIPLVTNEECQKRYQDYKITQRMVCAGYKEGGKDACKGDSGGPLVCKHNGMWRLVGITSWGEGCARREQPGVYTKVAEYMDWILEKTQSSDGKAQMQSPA
T1 sequence (P03952 20-390 partner limits assumed): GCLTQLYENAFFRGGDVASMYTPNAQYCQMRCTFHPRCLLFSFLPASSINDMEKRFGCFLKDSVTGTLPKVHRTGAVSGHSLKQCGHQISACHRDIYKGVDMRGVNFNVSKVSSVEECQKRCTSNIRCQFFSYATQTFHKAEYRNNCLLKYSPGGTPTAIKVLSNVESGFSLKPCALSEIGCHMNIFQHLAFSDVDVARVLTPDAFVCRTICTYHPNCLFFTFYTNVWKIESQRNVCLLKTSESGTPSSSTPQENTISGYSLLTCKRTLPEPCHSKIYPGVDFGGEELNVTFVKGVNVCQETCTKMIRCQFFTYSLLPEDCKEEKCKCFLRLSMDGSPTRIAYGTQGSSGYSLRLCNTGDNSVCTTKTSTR

human factor XIa = human factor XIa (Homo sapiens, UniProt P03951); test: Factor XIa Assay; format: biochemical; conditions: human factor XIa 0.04 nM, substrate GPR-AFC, 30 min pre-incubation at 25° C., pH 7.4; read-out: FXIa IC50
human factor XIa, sequence (P03951 388-625 limits assumed): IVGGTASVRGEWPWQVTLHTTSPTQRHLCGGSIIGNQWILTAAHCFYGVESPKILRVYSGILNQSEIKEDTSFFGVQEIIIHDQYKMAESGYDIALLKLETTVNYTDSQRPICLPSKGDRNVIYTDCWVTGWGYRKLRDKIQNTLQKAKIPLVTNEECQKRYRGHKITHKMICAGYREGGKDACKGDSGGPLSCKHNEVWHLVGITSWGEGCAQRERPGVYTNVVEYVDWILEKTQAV
human factor XIa, sequence (P03951 19-387 partner limits assumed): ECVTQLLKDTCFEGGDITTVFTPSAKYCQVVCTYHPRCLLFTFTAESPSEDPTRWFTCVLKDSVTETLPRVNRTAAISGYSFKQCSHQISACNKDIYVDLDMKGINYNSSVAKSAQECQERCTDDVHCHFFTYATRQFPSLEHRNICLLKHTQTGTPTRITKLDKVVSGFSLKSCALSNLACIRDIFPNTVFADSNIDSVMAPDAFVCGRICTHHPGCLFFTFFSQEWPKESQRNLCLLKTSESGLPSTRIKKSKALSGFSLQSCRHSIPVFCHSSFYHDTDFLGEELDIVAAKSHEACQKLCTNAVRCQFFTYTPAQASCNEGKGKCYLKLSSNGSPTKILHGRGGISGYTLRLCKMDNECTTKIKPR

IC50 (Human plasma kallikrein) [nM]	IC50 (human factor XIa) [nM]	Compound
27.7	1490	CC(c1cnc(N2CCC2)nc1)n1cc(NC(=O)c2cncc(-c3c(OC(F)F)ccc(Cl)c3F)n2)cn1 (single isomer, unassigned) [Example 56, (R or S)-N-(1-(1-(2-(Azetidin-1-yl)pyrimidin-5-yl)ethyl)-1H-pyrazol-4-yl)-6-(3-chloro-6-(difluoromethoxy)-2-fluorophenyl)pyrazine-2-carboxamide]
8	312	CCc1ncc(-c2c(C(F)F)ccc(Cl)c2F)nc1C(=O)Nc1cnn(Cc2cnc(N3CCC3)nc2)c1 [Example 14, N-(1-((2-(Azetidin-1-yl)pyrimidin-5-yl)methyl)-1H-pyrazol-4-yl)-6-(3-chloro-6-(difluoromethyl)-2-fluorophenyl)-3-ethylpyrazine-2-carboxamide]
1.5	9180	CC(c1cnc(N2CC[C@H]2CN2C[C@@H](O)[C@H](F)C2)nc1)n1cc(NC(=O)c2cncc(-c3c(C(F)F)ccc(Cl)c3F)n2)cn1 (stereo partly drawn) [Example 169, 6-(3-Chloro-6-(difluoromethyl)-2-fluorophenyl)-N-(1-(1-(2-((S)-2-(((3R,4R)-3-fluoro-4-hydroxypyrrolidin-1-yl)methyl)azetidin-1-yl)pyrimidin-5-yl)ethyl)-1H-pyrazol-4-yl)pyrazine-2-carboxamide]
2.8	120	C[C@@H](O)c1ncc(-c2c(C(F)F)ccc(Cl)c2F)nc1C(=O)Nc1cnn(Cc2cnc(N3CCC3)nc2)c1 (single isomer, unassigned) [Example 135]
1.8	372	CC(c1cnc(N2CCC2)nc1)n1cc(NC(=O)c2cncc(-c3cc(Cl)ccc3-n3cnnn3)n2)cn1 (single isomer, unassigned) [Example 59, (R or S)-N-(1-(1-(2-(Azetidin-1-yl)pyrimidin-5-yl)ethyl)-1H-pyrazol-4-yl)-6-(5-chloro-2-(1H-tetrazol-1-yl)phenyl)pyrazine-2-carboxamide]
13.1	2000	O=C(Nc1cnn(Cc2ccc(N3CCC3)nc2)c1)c1cncc(-c2c(C(F)F)ccc(Cl)c2F)n1 [Example 18, N-(1-((6-(Azetidin-1-yl)pyridin-3-yl)methyl)-1H-pyrazol-4-yl)-6-(3-chloro-6-(difluoromethyl)-2-fluorophenyl)pyrazine-2-carboxamide]
64.3	8070	Cc1nc(N2CCC2)ncc1[C@H](C)n1cc(NC(=O)c2cncc(-c3c(C(F)F)ccc(Cl)c3F)n2)cn1 (single isomer, unassigned) [Example 69]
26.9	8930	NC(=O)[C@H]1CCCN1c1ncc(Cn2cc(NC(=O)c3cncc(-c4c(C(F)F)ccc(Cl)c4F)n3)cn2)cn1 [Example 97, (R)-N-(1-((2-(2-Carbamoylpyrrolidin-1-yl)pyrimidin-5-yl)methyl)-1H-pyrazol-4-yl)-6-(3-chloro-6-(difluoromethyl)-2-fluorophenyl)pyrazine-2-carboxamide]
1.2	4850	CC(c1cnc(N2CC[C@H]2CN2CC[C@@H](O)C2)nc1)n1cc(NC(=O)c2cncc(-c3c(C(F)F)ccc(Cl)c3F)n2)cn1 (stereo partly drawn) [Example 163, 6-(3-Chloro-6-(difluoromethyl)-2-fluorophenyl)-N-(1-(1-(2-((S)-2-(((R)-3-hydroxypyrrolidin-1-yl)methyl)azetidin-1-yl)pyrimidin-5-yl)ethyl)-1H-pyrazol-4-yl)pyrazine-2-carboxamide]
6.7	1990	O=C(Nc1cnn(Cc2cnc(N3CC4CC4C3)nc2)c1)c1cncc(-c2c(C(F)F)ccc(Cl)c2F)n1 (centres unmarked) [Example 80, N-(1-((2-(3-Azabicyclo[3.1.0]hexan-3-yl)pyrimidin-5-yl)methyl)-1H-pyrazol-4-yl)-6-(3-chloro-6-(difluoromethyl)-2-fluorophenyl)pyrazine-2-carboxamide]
